The values below come from publication PMC4474554 (PLoS ONE, 2015).

Values joined by “and” are separate entries in the source; they are usually repeats but may differ in a detail not shown here. Equal values may be shown once. Read-outs that look alike come from different tables or passages of the source.

The subject of one experiment is A549. The experiment in a line: MTS assay, A549. For orientation: Formazan colour is commonly taken as a measure of viable cells.
For a further experiment, the system named is CDK1/cyclin B. Also noted: method as in earlier work. The settings on record: updated data; cited from earlier work.
The test system of another experiment is Pyk2. Also noted: method as in earlier work. The settings on record: updated data; cited from earlier work.
A further experiment concerns c-Kit. Also noted: method as in earlier work. The note with it: updated data; cited from earlier work.
The next experiment concerns PDGFR. Also noted: method as in earlier work. The note with it: updated data; cited from earlier work.
Experiment [1] concerns phospho-EGFR and downstream AKT, MAPK. The experiment in a line: Western blotting, EGFR, AKT and MAPK phosphorylation in NSCLC cell lines. The experiment is classed as cell-based. The protocol:
Next, they were washed out with cold PBS and lysed in 1 × cell lysis buffer [20 mM Tris-HCl (pH 7.5), 150 mM NaCl, 1 mM Na2EDTA, 1 mM EGTA, 1% Triton, 2.5 mM sodium pyrophosphate, 1 mM beta-glycerophosphate, 1 mM Na3VO4, 1 μg/ml leupeptin] (Cell signaling Technology) supplemented with Complete, Mini (Roche, Basel, Switzerland) to extract protein. After the protein concentration was measured, equal amounts of total protein (30 μg) were separated by SDS-PAGE and transferred to PVDF membranes. The proteins on membranes were incubated overnight at 4°C with the primary antibodies. The following secondary antibodies were used: goat antirabbit or antimouse IgG-conjugated horseradish peroxidase (HRP) (Santa Cruz Biotechnology, Santa Cruz, CA). To detect specific signals, the membranes were incubated by ECL plus Western Blotting Detection Reagents (Amersham Biosciences UK Limited, Buckinghamshire, UK).
Background: In western blotting, separated proteins are transferred to a membrane and probed.

For a further experiment, the system named is NCI-H1395. Nature of the experiment: MTS assay, NCI-H1395.
The mark [2] stands for this setting: EGFR-mutant cell lines PC-9, HCC827, NCI-H1975, RPC-9.

`CNC(=O)c1ccccc1Nc1nc(Nc2ccc(N3CCOCC3)cc2OC)ncc1Cl` [TAE226]: the IC50 in the experiment with A549 (read-out: IC50 (μM) (mean ± SD), A549, KRAS Codon 12 (G12S), MTS, TAE226 48 hours, gefitinib 72 hours) was 1.4 ± 0.05 µM; in the experiment with A549 (read-out: each IC50, A549, independent MTS assays) it was 1.4 µM and 1.3 µM; in the experiment with A549 (read-out: mean IC50, A549, mean of independent MTS assays), 1.4 µM; with CDK1/cyclin B, 540 nM; with Pyk2, 40 nM; with c-Kit it was more than 10000 nM. Moreover, the IC50 in the experiment on PDGFR was 2600 nM; with NCI-H1395 (read-out: IC50 (μM) (mean ± SD), NCI-H1395, BRAF Exon 11 (G469A), MTS, TAE226 48 hours), 0.48 ± 0.002 µM; with NCI-H1395 (read-out: each IC50, NCI-H1395, independent MTS assays), 0.48 µM; in the experiment with NCI-H1395 (read-out: mean IC50, NCI-H1395, mean of independent MTS assays) it was 0.48 µM. Also, in experiment [1] (setting [2]), the “phosphorylation of EGFR” value is reported as “predominantly inhibited”. Moreover, the “phosphorylations of AKT and MAPK” value in experiment [1] (setting [2]) is recorded as “inhibited”. In experiment [1] (cell lines with wild-type EGFR (NCI-H1299 and NCI-H1819)), the “phosphorylations of EGFR, AKT, and MAPK” value is “not inhibited”.

One may read the IC50 as the concentration that gives 50% inhibition.
